Assay: method code SF-HPLC, from DOI: 10.2478/s11532-013-0336-y

| logP | SMILES |
| --- | --- |
| 4.5 | CCCCCC=Cc1cc(OC)c(OC)c(OC)c1 |
| 2.93 | C/C=C/c1cc(OC)cc(OC)c1OC |
| 3.56 | CC/C=C\c1c(OC)cc(OC)cc1OC |
| 3.06 | CC/C=C\c1cc(OC)c(OC)c(OC)c1 |
| 4.57 | CCCC/C=C\c1c(OC)cc(OC)cc1OC |
| 2.61 | C/C=C/c1c(OC)cc(OC)cc1OC |
| 3.59 | CCCCCCC(O)c1cc(OC)c(OC)c(OC)c1 (stereo not given) |
| 2.94 | CC=Cc1cc(OC)c(OC(=O)c2cccnc2)c(OC)c1 |
| 2.9 | CCCCCC(O)c1cc(OC)c(OC)c(OC)c1 (stereo not given) |
| 3.09 | C/C=C/c1ccc(OC)c(OC)c1OC |
| 1.45 | CCC(O)c1cc(OC)c(OC)c(OC)c1 (stereo not given) |
| 3.67 | CCCC=Cc1cc(OC)c(OC)c(OC)c1 |
| 3.96 | CCCC=Cc1cc(OC)c(OC(=O)c2cccnc2)c(OC)c1 |
| 1.94 | CCCC(O)c1cc(OC)c(OC)c(OC)c1 (stereo not given) |
| 3.22 | C=CCOc1c(OC)cc(C=CC)cc1OC |
| 3.97 | CCC/C=C\c1c(OC)cc(OC)cc1OC |
| 4.28 | C=CCOc1c(OC)cc(C=CCCC)cc1OC |
| 2.49 | CCCCC(O)c1cc(OC)c(OC)c(OC)c1 (stereo not given) |
| 4.1 | CCCCC=Cc1cc(OC)c(OC)c(OC)c1 |
| 3.95 | CCCCCCCC(O)c1cc(OC)c(OC)c(OC)c1 (stereo not given) |
| 3.5 | CCC=Cc1cc(OC)c(OC(=O)c2cccnc2)c(OC)c1 |
| 2.73 | C/C=C/c1c(OC)ccc(OC)c1OC |
| 3.81 | C=CCOc1c(OC)cc(C=CCC)cc1OC |

| SMILES | logP |
| --- | --- |
| C/C=C/c1cc(OC)c(OC)c(OC)c1 | 2.27 |
| C/C=C/c1cc(OC)c(OC)cc1OC | 2.44 |

Reference: the SangsterLogP compilation
